# Data: publication PMC6791878, “Evaluation of integrin αvβ6 cystine knot PET tracers to detect cancer and idiopathic pulmonary fibrosis” (Nature Communications, 2019)
# Where “and” joins values, the source holds several entries; their conditions need not be identical. Equal values may be shown once.
# Columns and labels:
# [1] = target: T1, human integrin αvβ6 (Homo sapiens, UniProt P06756+P18564, DEL708-788); test: Equilibrium binding of yeast-displayed knottins to soluble integrin αvβ6 (two-colour flow cytometry, KD); settings: KD, equilibrium binding, knottin expressed on yeast surface vs soluble human integrin αvβ6; ± S.D., three replicates on separate days
# T1 construct: purchased R&D Systems
# T1 sequence (P06756 31-992 limits assumed, stated change not applied): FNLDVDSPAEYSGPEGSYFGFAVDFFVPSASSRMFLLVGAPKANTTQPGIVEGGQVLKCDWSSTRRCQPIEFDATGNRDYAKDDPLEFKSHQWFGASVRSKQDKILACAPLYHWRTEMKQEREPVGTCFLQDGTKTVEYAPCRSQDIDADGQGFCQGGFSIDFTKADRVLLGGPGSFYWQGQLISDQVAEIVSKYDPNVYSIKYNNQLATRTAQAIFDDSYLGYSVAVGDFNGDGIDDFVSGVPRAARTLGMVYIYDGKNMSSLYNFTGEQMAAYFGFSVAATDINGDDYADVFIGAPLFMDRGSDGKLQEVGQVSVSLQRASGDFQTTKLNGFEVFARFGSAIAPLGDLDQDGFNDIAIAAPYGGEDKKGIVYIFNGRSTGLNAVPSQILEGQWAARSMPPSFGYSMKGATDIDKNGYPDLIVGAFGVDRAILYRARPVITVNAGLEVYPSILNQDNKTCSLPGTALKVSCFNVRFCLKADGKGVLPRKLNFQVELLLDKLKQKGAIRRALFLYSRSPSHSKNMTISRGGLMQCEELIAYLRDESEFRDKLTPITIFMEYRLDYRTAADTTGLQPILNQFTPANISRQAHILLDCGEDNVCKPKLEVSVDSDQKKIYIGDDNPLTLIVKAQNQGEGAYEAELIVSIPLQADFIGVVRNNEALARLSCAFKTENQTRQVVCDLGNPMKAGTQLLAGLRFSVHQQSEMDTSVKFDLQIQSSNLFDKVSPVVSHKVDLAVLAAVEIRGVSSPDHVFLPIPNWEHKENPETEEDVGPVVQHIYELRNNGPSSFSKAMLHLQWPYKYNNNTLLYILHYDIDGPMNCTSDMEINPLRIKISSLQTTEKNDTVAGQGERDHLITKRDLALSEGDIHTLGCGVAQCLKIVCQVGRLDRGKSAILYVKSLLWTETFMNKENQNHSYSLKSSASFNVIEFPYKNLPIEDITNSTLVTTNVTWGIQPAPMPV
# T1 sequence (P18564 22-707 limits assumed, stated change not applied): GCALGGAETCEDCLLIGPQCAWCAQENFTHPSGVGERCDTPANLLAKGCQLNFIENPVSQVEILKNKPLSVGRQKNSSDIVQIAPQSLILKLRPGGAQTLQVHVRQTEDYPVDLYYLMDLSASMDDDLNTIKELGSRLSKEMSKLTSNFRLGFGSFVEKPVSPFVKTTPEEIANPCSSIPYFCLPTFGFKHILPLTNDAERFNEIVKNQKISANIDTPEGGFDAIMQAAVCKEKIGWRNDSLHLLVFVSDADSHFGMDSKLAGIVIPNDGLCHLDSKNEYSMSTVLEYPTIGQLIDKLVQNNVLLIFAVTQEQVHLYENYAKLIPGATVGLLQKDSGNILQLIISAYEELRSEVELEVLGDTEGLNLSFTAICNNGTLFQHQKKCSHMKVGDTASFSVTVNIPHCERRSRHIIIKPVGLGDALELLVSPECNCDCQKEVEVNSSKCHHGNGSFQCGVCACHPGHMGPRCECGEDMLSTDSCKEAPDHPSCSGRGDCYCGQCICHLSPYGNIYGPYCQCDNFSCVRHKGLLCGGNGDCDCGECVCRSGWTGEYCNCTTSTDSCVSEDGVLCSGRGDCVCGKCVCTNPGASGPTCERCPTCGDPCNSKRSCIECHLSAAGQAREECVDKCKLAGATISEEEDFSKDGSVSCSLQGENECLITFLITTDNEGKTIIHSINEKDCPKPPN
# [2] = target: T1, human integrin αvβ6; test: Competition binding (IC50) against yeast surface-displayed R01-MG; settings: compete with R01-MG displayed on yeast
structure (smiles),measurement,setting,value
CC[C@H](C)[C@@H]1NC(=O)[C@@H](NC(=O)CN)CSSC[C@@H]2NC(=O)[C@H](C)NC(=O)CNC(=O)[C@@H]3CCCN3C(=O)[C@@H]3CSSC[C@@H](C(=O)NCC(N)=O)NC(=O)[C@H](Cc4ccc(O)cc4)NC(=O)CNC(=O)[C@H](CC(N)=O)NC(=O)CNC(=O)[C@H](CCCNC(=N)N)NC(=O)[C@H](CSSC[C@H](NC(=O)[C@H](CCCNC(=N)N)NC(=O)[C@H](Cc4ccccc4)NC(=O)[C@H](CC(C)C)NC(=O)[C@H](CC(C)C)NC(=O)[C@H]([C@@H](C)O)NC(=O)CNC(=O)[C@H](CC(C)C)NC(=O)[C@H](CC(=O)O)NC(=O)[C@H]([C@@H](C)O)NC(=O)[C@H](CCCNC(=N)N)NC(=O)CNC(=O)[C@H](CC(N)=O)NC(=O)[C@H](CC(C)C)NC1=O)C(=O)N[C@@H](CCCNC(=N)N)C(=O)N[C@@H](CCCNC(=N)N)C(=O)N[C@@H](CC(=O)O)C(=O)N[C@@H](CO)C(=O)N[C@@H](CC(=O)O)C(=O)N3)NC(=O)[C@H]([C@@H](C)CC)NC2=O [R01-MG],Kd,[1],~1 nM and 1.24 nM
same,"binding affinity for integrin avb6 in competition binding (IC50), in words",[2],subnanomolar
